Test results: patent US20160278381A1, “Agricultural And Horticultural Fungicidal Composition And Method Of Use Of the Same” (NIHON NOHYAKU CO., LTD., priority 2015, published 2016)

Tested on: Pythium aphanidermatum
Test: Test Example 1: spray on lawn grass sods, inoculation with Pythium aphanidermatum, control value from lesion diameter
Format: in vivo
Conditions: for Control Value (%): alone, lesion diameter seven days after inoculation; for efficacy against Pythium aphanidermatum: treated each alone
Source text: With a hand spray, chemical agents (no spreader added) prepared from commercial formulations at the predetermined concentrations were sprayed with the volume of 0.25 l/m^2. Seven days after the final spraying, with a hole cutter (10 cm in diameter), two sods were cut out, transferred into a greenhouse and inoculated with Pythium aphanidermatum.
For the test plot for the present invention, chemical solutions of tiadinil and chlorothalonil were each prepared, and each of the chemical solutions were blended for use as compositions and combinations.
Seven days after the inoculation, lesion diameters in each treated plots and the untreated plot were measured for calculating the control values for each treated plots using an equation below.
In general, in a case, where two active ingredients given are mixed and treated, if the actual efficacy measured is larger than the Colby's expectation value (E) calculated using the Colby's equation below, wherein value (E) is interpreted to denote an expected control value (%) which is predicted by the combination of the two active ingredients, the function achieved by the combination of the two active ingredients is determined to be synergistic.
(wherein X represents the preventive value (%) of one of the active ingredients and Y represents the preventive value (%) of the other active ingredient.)

## N#Cc1c(Cl)c(Cl)c(Cl)c(C#N)c1Cl [Chlorothalonil, chlorothalonil]
Dose 1.1 fl oz/1,000 ft^2
  Control Value (%): 22%
  efficacy against Pythium aphanidermatum: did not show sufficient efficacy

## Cc1ccc(NC(=O)c2snnc2C)cc1Cl [Tiadinil, tiadinil]
Dose 0.15625 fl oz/1,000 ft^2
  Control Value (%): 11%
Dose 0.3125 fl oz/1,000 ft^2
  Control Value (%): 11%
Dose 0.625 fl oz/1,000 ft^2
  Control Value (%): 22%
Dose 1.25 fl oz/1,000 ft^2
  Control Value (%): 22%
  efficacy against Pythium aphanidermatum: did not show sufficient efficacy
